ChEMBL document CHEMBL1955755, “Novel imidazo[2,1-b][1,3,4]thiadiazole carrying rhodanine-3-acetic acid as potential antitubercular agents” (2012)
In brackets after ≈: the same amount, converted by molar mass.

System: Mycobacterium tuberculosis
Test: Antitubercular activity against Mycobacterium tuberculosis H37Rv ATCC 27294 after 5 days by microplate alamar blue assay
Assay type: functional
Conditions: H37Rv ATCC 27294, 120 h

SMILES: O=C1NC(=O)/C(=C/c2c(-c3ccc([N+](=O)[O-])cc3)nc3sc(C(F)(F)F)nn23)S1
- MIC: 50 µg/mL (≈ 113 µM)

SMILES: COc1ccc(-c2nc3sc(C(F)(F)F)nn3c2/C=C2\SC(=S)N(CC(=O)O)C2=O)cc1
- MIC: 1.56 µg/mL (≈ 3.12 µM)

SMILES: COc1ccc(-c2nc3sc(C(F)(F)F)nn3c2/C=C2\SC(=S)NC2=O)cc1
- MIC: 25 µg/mL (≈ 56.5 µM)

SMILES: Cc1ccc(-c2nc3sc(C(F)(F)F)nn3c2/C=C2\SC(=S)NC2=O)cc1
- MIC: 6.25 µg/mL (≈ 14.7 µM)

SMILES: O=C1NC(=S)S/C1=C\c1c(-c2ccccc2)nc2sc(C(F)(F)F)nn12
- MIC: 6.25 µg/mL (≈ 15.2 µM)

SMILES: O=C1NC(=O)/C(=C/c2c(-c3ccccc3)nc3sc(C(F)(F)F)nn23)S1
- MIC: 25 µg/mL (≈ 63.1 µM)

SMILES: Cc1ccc(-c2nc3sc(C(F)(F)F)nn3c2/C=C2\SC(=O)NC2=O)cc1
- MIC: 25 µg/mL (≈ 60.9 µM)

SMILES: O=C1NC(=S)S/C1=C\c1c(-c2ccc(F)cc2)nc2sc(C(F)(F)F)nn12
- MIC: 6.25 µg/mL (≈ 14.5 µM)

SMILES: O=C1NC(=S)S/C1=C\c1c(-c2ccc(Cl)cc2)nc2sc(C(F)(F)F)nn12
- MIC: 50 µg/mL (≈ 112 µM)

SMILES: O=C1NC(=S)S/C1=C\c1c(-c2ccc([N+](=O)[O-])cc2)nc2sc(C(F)(F)F)nn12
- MIC: 50 µg/mL (≈ 109 µM)

SMILES: O=C1NC(=O)/C(=C/c2c(-c3ccc(F)cc3)nc3sc(C(F)(F)F)nn23)S1
- MIC: 25 µg/mL (≈ 60.3 µM)

SMILES: O=C(O)CN1C(=O)/C(=C/c2c(-c3ccc([N+](=O)[O-])cc3)nc3sc(C(F)(F)F)nn23)SC1=S
- MIC: 25 µg/mL (≈ 48.5 µM)

SMILES: O=C1NC(=O)/C(=C/c2c(-c3ccc(Br)cc3)nc3sc(C(F)(F)F)nn23)S1
- MIC: 25 µg/mL (≈ 52.6 µM)

SMILES: O=C(O)CN1C(=O)/C(=C/c2c(-c3ccccc3)nc3sc(C(F)(F)F)nn23)SC1=S
- MIC: 6.25 µg/mL (≈ 13.3 µM)

SMILES: O=C1NC(=S)S/C1=C\c1c(-c2ccc(Br)cc2)nc2sc(C(F)(F)F)nn12
- MIC: 3.12 µg/mL (≈ 6.35 µM)

SMILES: O=C(O)CN1C(=O)/C(=C/c2c(-c3ccc(Cl)cc3)nc3sc(C(F)(F)F)nn23)SC1=S
- MIC: 3.12 µg/mL (≈ 6.18 µM)

SMILES: O=C(O)CN1C(=O)/C(=C/c2c(-c3ccc(F)cc3)nc3sc(C(F)(F)F)nn23)SC1=S
- MIC: 3.12 µg/mL (≈ 6.39 µM)

SMILES: COc1ccc(-c2nc3sc(C(F)(F)F)nn3c2/C=C2\SC(=O)NC2=O)cc1
- MIC: 25 µg/mL (≈ 58.6 µM)

SMILES: Cc1ccc(-c2nc3sc(C(F)(F)F)nn3c2/C=C2\SC(=S)N(CC(=O)O)C2=O)cc1
- MIC: 3.12 µg/mL (≈ 6.44 µM)

SMILES: CO[C@H]1/C=C/O[C@@]2(C)Oc3c(C)c(O)c4c(O)c(c(/C=N/N5CCN(C)CC5)c(O)c4c3C2=O)NC(=O)/C(C)=C\C=C\[C@H](C)[C@H](O)[C@@H](C)[C@@H](O)[C@@H](C)[C@H](OC(C)=O)[C@@H]1C [RIFAMPIN]
- MIC: 0.78 µg/mL (≈ 0.948 µM)

SMILES: NNC(=O)c1ccncc1 [ISONIAZID]
- MIC: 1.56 µg/mL (≈ 11.4 µM)

SMILES: O=C1NC(=O)/C(=C/c2c(-c3ccc(Cl)cc3)nc3sc(C(F)(F)F)nn23)S1
- MIC: 3.12 µg/mL (≈ 7.24 µM)

SMILES: O=C(O)CN1C(=O)/C(=C/c2c(-c3ccc(Br)cc3)nc3sc(C(F)(F)F)nn23)SC1=S
- MIC: 3.12 µg/mL (≈ 5.68 µM)
